SMILES strings stand for the structures.

Data set [1] is described as follows: Measurement of relaxivity (r1, r2) in 3T MRI phantom. The conditions noted are these: tertiary distilled water, 0.0625-1 mM, linear regression, in mM-1·s-1 (unit assumed). It is filed as physicochemical. The protocol:
The relaxivity (r1, r2) of each of synthesized Gd-DO3A-Hba, and cyclic commercial contrast agents Gadovist® and Dotarem® as comparison groups material was measured. Specifically, a phantom was prepared by diluting the gadolinium complex in tertiary distilled water to five concentrations (0.0625, 0.125, 0.25, 0.5, 1 mM), and then T1 and T2 relaxation times were measured in 3T MRI. Thus, R (Relaxation rate=1/T) of each concentration was calculated and the relaxivity (r1, r2) result of the gadolinium complex was obtained through linear regression analysis (see FIG. 3) and shown in a following Table 1.

A further data set deals with amyloid beta polymer (Homo sapiens, UniProt P05067). The experiment in a line: Amyloid beta polymer targeting ability, phantom experiment on 9.4T MR. Conditions: incubated with amyloid beta polymer 37° C. 24 hours, washed pellet, FIG. 6. Format: binding. The protocol: (1) 221.5 μL of HFIP was added to 1 mg of amyloid beta at a concentration of 1 mM, followed by shaking for 1 hour at room temperature using a shaker to remove preaggregation. (2) The amyloid beta from which the preaggregation was removed was dried, and 221.5 μL of DMSO was added thereto to achieve a 1 mM concentration. Using a mixer and sonicator, a suspension thereof was prepared, and 878.5 μL of PBS (1×, pH 7.4) was added thereto to achieve a 0.2 mM concentration. (3) After incubating the suspension at 37° C. for 4 days using a shaker, the polymerized amyloid beta polymer was dispensed by 200 μL. Then, 20 μL of a solution in which each of Gd-DO3A-Hba and the commercial contrast agent (Gadovist®) was dissolved in PBS at 2 mM concentration was added thereto. The incubation was carried out thereon at 37° C. for 24 hours using a shaker. (4) After 24 hours has elapsed, centrifugation was performed thereon to remove the supernatant therefrom. The amyloid beta polymer was washed using PBS. 200 μL of a solution of PBS:DMSO=9:1 was added to a pellet to prepare an MRI phantom sample. As a control, a phantom sample obtained by incubating only the amyloid beta polymer was used. […]
Chain of amyloid beta polymer (P05067 672-713 limits assumed): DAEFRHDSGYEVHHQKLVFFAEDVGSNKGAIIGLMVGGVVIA

As to `O=C([O-])CN1CCN(CC(=O)[O-])CCN([C@H](CO)[C@H](O)CO)CCN(CC(=O)[O-])CC1.[Gd+3]` (racemic) [Gadovist ®], in data set [1], the “relaxivity r1” value is 3.9 ± 0.1 and the “relaxivity r2” value was found to be 4.9 ± 0.1. Moreover, the “signal intensity / contrast enhancement compared to phantom of only amyloid beta polymer” value at amyloid beta polymer is reported as “little difference in contrast enhancement effect”.
In the case of `O=C([O-])CN1CCN(CC(=O)[O-])CCN(CC(=O)[O-])CCN(CC(=O)[O-])CC1.[Gd+3]` [Dotarem ®, Gd-DOTA], in data set [1], the “relaxivity r1” value is 3.4 ± 0.1 and the “relaxivity r2” value is reported as 3.9 ± 0.2.

Source of the values: patent US20250319212A1, “GADOLINIUM-BASED COMPOUND, AND MRI CONTRAST AGENT INCLUDING SAME” (KYUNGPOOK NATIONAL UNIVERSITY INDUSTRY-ACADEMIC COOPERATION …, priority 2021, published 2025).
